Test results reported in PubChem BioAssay (NCI).
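These data come from cells grown in 96-well plates and exposed to compound for 48 hours at five concentrations. The concentration for full growth arrest is given as TGI.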

Experiments:
Assay in all cases: inhibition of tumour cell growth, NCI panel, 48 h
786-0 renal = system: 786-0 renal
A498 renal = system: A498 renal
A549 NSCLC = system: A549 NSCLC
CAKI-1 renal = system: CAKI-1 renal
HOP-62 NSCLC = system: HOP-62 NSCLC
HOP-92 NSCLC = system: HOP-92 NSCLC
K-562 leukemia = system: K-562 leukemia
KM12 colon = system: KM12 colon
MALME-3M melanoma = system: MALME-3M melanoma
MOLT-4 leukemia = system: MOLT-4 leukemia
SK-MEL-28 melanoma = system: SK-MEL-28 melanoma
U251 CNS = system: U251 CNS
UACC-257 melanoma = system: UACC-257 melanoma
BT-549 breast = system: BT-549 breast
HS 578T breast = system: HS 578T breast

Measured: TGI

CC1(C)N=C(Oc2ccccc2)n2nccc2N1
> 100 µM: 786-0 renal | A498 renal | A549 NSCLC | CAKI-1 renal | HOP-62 NSCLC | HOP-92 NSCLC | K-562 leukemia | KM12 colon | MALME-3M melanoma | MOLT-4 leukemia | SK-MEL-28 melanoma | U251 CNS | UACC-257 melanoma

O=C1Cc2ccccc2CCc2ccsc21
> 100 µM: 786-0 renal | A498 renal | A549 NSCLC | CAKI-1 renal | HOP-92 NSCLC | K-562 leukemia | KM12 colon | MALME-3M melanoma | MOLT-4 leukemia | SK-MEL-28 melanoma | U251 CNS | UACC-257 melanoma

COc1nc(OC)nc(Sc2ccc(Sc3ccc(Sc4nc(OC)nc(OC)n4)cc3)cc2)n1
> 100 µM: 786-0 renal | A498 renal | A549 NSCLC | CAKI-1 renal | HOP-92 NSCLC | K-562 leukemia | KM12 colon | MALME-3M melanoma | MOLT-4 leukemia | SK-MEL-28 melanoma | U251 CNS | UACC-257 melanoma

CC#Cc1c(C#CC)c(OC)c2c(c1OC)C(=O)c1ccccc1C2=O
48 µM: U251 CNS
45.4 µM: HOP-62 NSCLC
> 100 µM: 786-0 renal | A498 renal | A549 NSCLC | CAKI-1 renal | K-562 leukemia | KM12 colon | MALME-3M melanoma | MOLT-4 leukemia | SK-MEL-28 melanoma | UACC-257 melanoma

Cc1ccc(F)c2c(=O)cc(-c3ccccc3)[nH]c12
> 100 µM: 786-0 renal | A549 NSCLC | CAKI-1 renal | HOP-62 NSCLC | HOP-92 NSCLC | K-562 leukemia | KM12 colon | MALME-3M melanoma | MOLT-4 leukemia | SK-MEL-28 melanoma | U251 CNS | UACC-257 melanoma

CC(Cc1ccc2c(c1)OCO2)N(C)C(=O)C1=CCN(C)CC1 (configuration not stated)
> 100 µM: 786-0 renal | A549 NSCLC | BT-549 breast | CAKI-1 renal | HOP-62 NSCLC | HS 578T breast | K-562 leukemia | KM12 colon | MALME-3M melanoma | MOLT-4 leukemia | SK-MEL-28 melanoma | U251 CNS | UACC-257 melanoma

O=C1c2ccccc2C(=O)c2c(O)c(NCCNCCO)cc(O)c21
13.5 µM: A549 NSCLC
14.2 µM: CAKI-1 renal
11.5 µM: HOP-62 NSCLC
14.1 µM: 786-0 renal
24.6 µM: HOP-92 NSCLC
19.6 µM: UACC-257 melanoma
16.6 µM: SK-MEL-28 melanoma
10.4 µM: K-562 leukemia | MOLT-4 leukemia
21 µM: A498 renal
15.7 µM: KM12 colon
26.5 µM: MALME-3M melanoma

O=C(Nc1ccc(S(=O)(=O)Nc2ncccn2)cc1)c1c2ccccc2nc2ccccc12
> 100 µM: 786-0 renal | A498 renal | A549 NSCLC | BT-549 breast | CAKI-1 renal | HOP-62 NSCLC | HOP-92 NSCLC | K-562 leukemia | KM12 colon | MALME-3M melanoma | MOLT-4 leukemia | SK-MEL-28 melanoma | U251 CNS | UACC-257 melanoma

Cc1cc(Cl)ccc1NC(=O)C(=O)Cc1occc(=O)c1O
> 100 µM: 786-0 renal | A498 renal | A549 NSCLC | CAKI-1 renal | HOP-62 NSCLC | HOP-92 NSCLC | K-562 leukemia | KM12 colon | MALME-3M melanoma | MOLT-4 leukemia | SK-MEL-28 melanoma | U251 CNS | UACC-257 melanoma

Cc1cc(C#N)c(Nc2ccccc2[N+](=O)[O-])s1
> 100 µM: 786-0 renal | A498 renal | A549 NSCLC | CAKI-1 renal | HOP-92 NSCLC | K-562 leukemia | KM12 colon | MOLT-4 leukemia | SK-MEL-28 melanoma | UACC-257 melanoma
90.9 µM: HOP-62 NSCLC
60.5 µM: BT-549 breast
57.6 µM: U251 CNS

CCCOP(=S)(N1CC1)N1CC1
46.5 µM: UACC-257 melanoma
> 100 µM: 786-0 renal | A498 renal | A549 NSCLC | CAKI-1 renal | HOP-62 NSCLC | HOP-92 NSCLC | K-562 leukemia | KM12 colon | MALME-3M melanoma | MOLT-4 leukemia | SK-MEL-28 melanoma | U251 CNS

C=CCC1C2CCC(O[Si](C(C)C)(C(C)C)C(C)C)(C(C(=O)OC)C2)C1O (configuration not stated)
> 100 µM: 786-0 renal | A498 renal | A549 NSCLC | CAKI-1 renal | HOP-62 NSCLC | HOP-92 NSCLC | HS 578T breast | K-562 leukemia | KM12 colon | MOLT-4 leukemia | SK-MEL-28 melanoma | U251 CNS | UACC-257 melanoma

O=C(O)CCc1nc2cc3ccccc3cc2[nH]c1=O
> 100 µM: 786-0 renal | A498 renal | A549 NSCLC | BT-549 breast | CAKI-1 renal | HOP-62 NSCLC | HOP-92 NSCLC | K-562 leukemia | KM12 colon | MOLT-4 leukemia | SK-MEL-28 melanoma | U251 CNS | UACC-257 melanoma

Cc1nc2nn(C)cc2c(=O)n1/N=C/c1ccccc1
> 100 µM: 786-0 renal | A498 renal | A549 NSCLC | HOP-62 NSCLC | K-562 leukemia | KM12 colon | MALME-3M melanoma | MOLT-4 leukemia | SK-MEL-28 melanoma | U251 CNS | UACC-257 melanoma

CCOC(=O)NC(=S)NC(C)c1ccccc1 (configuration not stated)
> 100 µM: 786-0 renal | A549 NSCLC | BT-549 breast | CAKI-1 renal | HOP-62 NSCLC | HS 578T breast | K-562 leukemia | KM12 colon | MALME-3M melanoma | MOLT-4 leukemia | SK-MEL-28 melanoma | U251 CNS | UACC-257 melanoma

COc1ccc(C2C(Cl)C(=O)N2NC(=O)c2ccccc2O)cc1OC (configuration not stated)
> 100 µM: 786-0 renal | A498 renal | A549 NSCLC | K-562 leukemia | KM12 colon | MALME-3M melanoma | MOLT-4 leukemia | SK-MEL-28 melanoma | U251 CNS | UACC-257 melanoma

CC(C)c1cccc(C(C)C)c1NC(=O)C(=O)C1SC(=S)NC1=O (configuration not stated)
> 100 µM: 786-0 renal | A498 renal | A549 NSCLC | CAKI-1 renal | HOP-62 NSCLC | HOP-92 NSCLC | K-562 leukemia | KM12 colon | MALME-3M melanoma | MOLT-4 leukemia | SK-MEL-28 melanoma | U251 CNS | UACC-257 melanoma
